This is an account of results in US20200375980A1, “VETERINARY ANTIPROLACTINIC COMPOSITION” (CEVA SANTE ANIMALE, priority 2018, published 2020).

In the data set the test system is Primiparous sows. In words: Proof of concept study, WOI (weaning to oestrus interval) in primiparous sows. The format is in vivo, Sus scrofa domesticus. How it is done:
All sows included in this study were recruited from a single farm having an historical mean of WOI of 5.4 days, and a percentage of delayed oestrus (8 days) of 7.9%. Weaning was set after about 3 weeks of lactation. Primiparous sows (with normal health status and normal farrowing) were allocated into three groups: Cab_0 (n=19 sows): 5.6 μg/kg of cabergoline by intramuscular injection at weaning day (day 0) in sows, i.e. at the end of lactation, without suckling piglets. Cab_2 (n=30 sows): 5.6 μg/kg of cabergoline by intramuscular injection 2 days before weaning (day-2) in sows, i.e. lactation still pending with suckling piglets. Negative control group (n=29 sows): equivalent dose/volume of a ‘true’ placebo by intramuscular injection at Day-2 and day 0.

[1] abbreviates: group Cab_0: 5.6 μg/kg intramuscular at weaning day (day 0).
Setting [2] is: group Cab_0: 5.6 μg/kg intramuscular at weaning day (day 0), n=19 sows.
Setting [3] is: group Cab_2: 5.6 μg/kg intramuscular 2 days before weaning (day-2), n=30 sows.

For the molecule `C=CCN1C[C@H](C(=O)N(CCCN(C)C)C(=O)NCC)C[C@@H]2c3cccc4[nH]cc(c34)C[C@H]21` [cabergoline, 1-[(6-allylergolin-8ß-yl)-carbonyl]-1-[3-(dimethylamino)propyl]-3-ethylurea], the “impact of the treatment on fertility” value (all sows diagnosed positively pregnant after artificial insemination following oestrus detection, Cab_0 and Cab_2 groups) is listed as “no negative impact”. Also, under setting [1], the “sows exhibiting delayed oestrus (after or equal 8 days), number of sows per group” value is 1/19 and the “sows exhibiting delayed oestrus (after or equal 8 days), percentage” value turned out to be 5.3%. In addition, under setting [2], the “number of sows in heats, WOI 8-14 days” value turned out to be 1; the “number of sows in heats, WOI 3 days” value is 1; the “number of sows in heats, WOI 4 days” value is recorded as 6; the “number of sows in heats, WOI 5 days” value was determined as 8. Also, under setting [2], the “number of sows in heats, WOI 6 days” value came to 2 and the “number of sows in heats, WOI 7 days” value is recorded as 1. Where the note is “group Cab_2: 5.6 μg/kg intramuscular 2 days before weaning (day-2)”, the “delayed oestrus (after or equal 8 days)” value is recorded as “no delayed oestrus”. Under setting [3], the “number of sows in heats, WOI 3 days” value is listed as 2; the “number of sows in heats, WOI 4 days” value was found to be 13; the “number of sows in heats, WOI 5 days” value is on record as 10; the “number of sows in heats, WOI 6 days” value was 5. Besides, the “number of sows in heats, WOI 7 days” value under setting [3] worked out at 0.
